Drawing on the OPERA property sets (Mansouri et al. 2018), this text covers logP, solubility and logD for 44 molecules.

Values after ≈ are worked out from the molar mass of the structure shown.

By logP is commonly meant the decadic logarithm of the partition coefficient of the neutral form, usually between octanol and water. Low values mean a more hydrophilic compound, high ones a more lipophilic compound. The solubility is the concentration that dissolves in the medium under given conditions. For the molecule `CCCCCC(C)OC(=O)COc1ccc(Cl)c2cccnc12` (stereo not drawn), the logP was 5.03. The solubility (25 °C) turned out to be 1.76 µM (≈ 0.59 µg/mL).

As to `CCCCOCC(C)OC(=O)COc1nc(F)c(Cl)c(N)c1Cl` (stereo not drawn), the logP stood at 4.17.

Regarding `CN(C(=O)COc1nc2ccccc2s1)c1ccccc1`, the log partition coefficient (logP) was 3.23.

`CCOc1ccccc1OS(=O)(=O)NC(O)=Nc1nc(OC)cc(OC)n1` showed a logP of 2.89. In addition, for the setting “pH 5.0, 20 °C”, the solubility amounted to 65.3 µM (≈ 26 µg/mL).

Take `CC(C)N(Cc1ccccc1)C(=O)C(C)(C)C`: the logP came out at 3. Under “pH 7.0, 20 °C”, the solubility worked out at 3390 µM (≈ 790 µg/mL).

Turning to `CCCSC(=O)N(CCC)CCC`, the logP was found to be 3.84. This molecule also yielded a solubility (20 °C) of 443 µM (≈ 90 µg/mL).

For `CC1(C)[C@H](C=C(Cl)Cl)[C@H]1C(=O)OCc1c(F)c(F)cc(F)c1F`, the solubility (20 °C) is 0.154 µM (≈ 0.057 µg/mL).

Turning to `O=C(O)Cn1c(=O)sc2cccc(Cl)c21`, the logP worked out at 1.34.

`CC(C)(C)C(O)(CCc1ccc(Cl)cc1)Cn1cncn1` (stereo not drawn) came in with a log partition coefficient (logP) of 3.7.

As for `CC1=NNC(=O)N(/N=C/c2cccnc2)C1`, the log partition coefficient (logP) was -0.18. For the same molecule, for the setting “25 °C”, the solubility turned out to be 1340 µM (≈ 290 µg/mL).

The molecule `N#Cc1nn(-c2c(Cl)cc(C(F)(F)F)cc2Cl)c(N)c1S(=O)C(F)(F)F` (stereo not drawn) had a lipophilicity (logP) of 4. Moreover, the solubility (20 °C) is 4.35 µM (≈ 1.9 µg/mL).

`COCCN(C(=O)CCl)c1c(C)cccc1C` registered a logP of 2.17. In addition, the solubility (20 °C) was 8590 µM (≈ 2200 µg/mL).

For `Clc1cccc(C(Cl)(Cl)Cl)n1`, the solubility (25 °C) is 233 µM (≈ 53.7 µg/mL).

Consider `CC(C)(COCc1cccc(Oc2ccccc2)c1)c1ccc(OC(F)(F)Br)cc1`, for which the solubility (25 °C) came out at 0.000105 µM (≈ 5e-05 µg/mL).

On to `CC1(C)CCC(=Cc2ccc(Cl)cc2)C1(O)Cn1cncn1` (stereo not drawn), for which the log partition coefficient (logP) worked out at 3.29.

For the molecule `Cc1ccn2nc(S(=O)(=O)Nc3c(F)cccc3F)nc2n1`, the solubility (pH 2.5) was 150 µM (≈ 48.7 µg/mL).

For the molecule `C#CCN1CC(=O)N(COC(=O)[C@@H]2[C@@H](C=C(C)C)C2(C)C)C1=O`, the logP came out at 2.9. This molecule also registered a solubility (25 °C) of 294 µM (≈ 93.5 µg/mL).

The molecule `CC1=CC[C@@H]2C[C@@H](C[C@]3(CC[C@H](C)[C@@H](C)O3)O2)OC(=O)[C@@H]2C=C(C)[C@@H](O)[C@H]3OCC(=CC=C[C@H](C)C1)[C@]32O` came in with a logP of 5.3. Where the note is “20 °C”, this molecule returned a solubility of 1.66 µM (≈ 0.88 µg/mL).

Turning to `CC[C@H]1O[C@]2(CC[C@@H]1C)C[C@@H]1C[C@@H](CC=C(C)C[C@@H](C)C=CC=C3CO[C@@H]4[C@H](O)C(C)=C[C@@H](C(=O)O1)[C@]34O)O2`, the lipophilicity (logP) turned out to be 5.9. Besides, the solubility (20 °C) was determined as 13.3 µM (≈ 7.2 µg/mL).

Molecule `CNC(=O)Oc1cc(C)cc(C)c1` returned a solubility (20 °C) of 2620 µM (≈ 470 µg/mL).

`CCc1cccc(C)c1N(COC(C)C)C(=O)CCl`: the log partition coefficient (logP) came to 3.5.

`COC(=O)CSc1cc(/N=c2\sc(=O)n3n2CCCC3)c(F)cc1Cl` came in with a logP of 3.77.

As for `COc1cc(OC)nc(N=C(O)NS(=O)(=O)c2c(Cl)nc3ccccn23)n1`, the solubility (pH 5.1, 25 °C) is 16.3 µM (≈ 6.72 µg/mL). This counts as double-digit micromolar.

On to `CCOP(=O)(SC(C)CC)N1CCSC1=O` (stereo not drawn), for which the logP is 1.68.

Take `O=C1C2CC=CCC2C(=O)N1SC(Cl)(Cl)Cl` (stereo not drawn): the log partition coefficient (logP) worked out at 2.8.

In turn, `CN(C)S(=O)(=O)N(SC(F)(Cl)Cl)c1ccccc1` returned a logP of 3.7.

`CS(=O)(=O)c1cc(C(F)(F)F)ccc1C(=O)c1cnoc1C1CC1` yielded a logP of 2.32. The same molecule gave a solubility (pH 5.5, 20 °C) of 17.3 µM (≈ 6.2 µg/mL).

`COC(=O)c1c(C(F)F)nc(C(F)(F)F)c(C2=NCCS2)c1CC(C)C` yielded a lipophilicity (logP) of 3.89.

A word on the logD: it is the decadic logarithm of the distribution of all forms, ionised or not, between an organic phase and buffer at a given pH. A lower logD goes with a more hydrophilic compound. Turning to `O=c1c2cc(F)ccc2nc(-n2cncn2)n1-c1ccc(Cl)cc1Cl`, under “pH 5.6”, the pH-dependent lipophilicity (logD) came to 3.24.

Take `CCOP(=S)(Oc1cnc(C(C)(C)C)nc1)OC(C)C` (stereo not drawn): the solubility (pH 7.0, 20 °C) amounted to 17.3 µM (≈ 5.5 µg/mL).

For the molecule `Cc1cccc(C)c1N(Cn1cccn1)C(=O)CCl`, the lipophilicity (logP) was 2.13.

Regarding `COc1ccc(-c2ccccc2)cc1NNC(=O)OC(C)C`, the solubility (20 °C) was determined as 12.5 µM (≈ 3.76 µg/mL).

In the case of `O=C(O)c1c(Cl)c(Cl)c(Cl)c(Cl)c1C(O)=Nc1cccc(Cl)c1Cl`, the solubility (26 °C) turned out to be 31.3 µM (≈ 14 µg/mL). That is a double-digit micromolar value.

Turning to `CNc1cnn(-c2cccc(C(F)(F)F)c2)c(=O)c1Cl`, the solubility (25 °C) turned out to be 111 µM (≈ 33.7 µg/mL).

In turn, `COc1cc(OC)nc(Sc2cccc(Cl)c2C(=O)[O-])n1.[Na+]` yielded a logD (pH 5.0) of 0.6.

On to `COC(=O)c1c(Cl)c(Cl)c(C(=O)OC)c(Cl)c1Cl`, for which the logP came out at 4.28. In addition, the solubility (25 °C) is 1.51 µM (≈ 0.5 µg/mL).

Take `CC(Oc1ccc(Oc2ncc(C(F)(F)F)cc2Cl)cc1)C(=O)O` (stereo not drawn): the solubility (pH 2.6, 25 °C) came out at 120 µM (≈ 43.4 µg/mL).

In the case of `CC(C)(C)[C@H](O)/C(=C\c1ccc(Cl)cc1)n1cncn1`, the solubility (25 °C) came out at 28.8 µM (≈ 8.41 µg/mL).

Molecule `Cc1c(COC(=O)[C@@H]2[C@H](/C=C(\Cl)C(F)(F)F)C2(C)C)cccc1-c1ccccc1` (racemic) registered a solubility of 0.236 µM (≈ 0.1 µg/mL).

For `CO/C=C(/C(=O)OC)c1ccccc1Oc1cc(Oc2ccccc2C#N)ncn1`, the log partition coefficient (logP) worked out at 2.5. Moreover, the solubility (20 °C) amounted to 14.9 µM (≈ 6 µg/mL).

`Cc1cc(C)nc(NC(=O)NS(=O)(=O)c2ccccc2C(=O)OC2COC2)n1` returned a solubility (pH 5.1, 25 °C) of 128 µM (≈ 52 µg/mL).

`CCSCc1ccccc1OC(=O)NC`: the logP was determined as 2.04.

`CCS(=O)(=O)c1cccnc1S(=O)(=O)NC(=O)Nc1nc(OC)cc(OC)n1` yielded a logD (pH 5.0) of 0.29.

Take `COc1cc(OC)nc(NC(=O)NS(=O)(=O)c2c(-c3nnn(C)n3)cnn2C)n1`: the logP is 0.65. Where the note is “pH 7.0, 20 °C”, this molecule displayed a solubility of 2470 µM (≈ 1050 µg/mL).
